# Entries after “also recorded” stand apart in the source; their conditions may differ. Like-named read-outs stand apart in the source and are kept apart here. Where no end group is shown, it is not given here.
# T1: DISC1 (Rattus norvegicus, UniProt Q810H6)
# T1 construct: from tissue; host or cells: rat striatum, solubilized
# T1 sequence (Q810H6 1-846): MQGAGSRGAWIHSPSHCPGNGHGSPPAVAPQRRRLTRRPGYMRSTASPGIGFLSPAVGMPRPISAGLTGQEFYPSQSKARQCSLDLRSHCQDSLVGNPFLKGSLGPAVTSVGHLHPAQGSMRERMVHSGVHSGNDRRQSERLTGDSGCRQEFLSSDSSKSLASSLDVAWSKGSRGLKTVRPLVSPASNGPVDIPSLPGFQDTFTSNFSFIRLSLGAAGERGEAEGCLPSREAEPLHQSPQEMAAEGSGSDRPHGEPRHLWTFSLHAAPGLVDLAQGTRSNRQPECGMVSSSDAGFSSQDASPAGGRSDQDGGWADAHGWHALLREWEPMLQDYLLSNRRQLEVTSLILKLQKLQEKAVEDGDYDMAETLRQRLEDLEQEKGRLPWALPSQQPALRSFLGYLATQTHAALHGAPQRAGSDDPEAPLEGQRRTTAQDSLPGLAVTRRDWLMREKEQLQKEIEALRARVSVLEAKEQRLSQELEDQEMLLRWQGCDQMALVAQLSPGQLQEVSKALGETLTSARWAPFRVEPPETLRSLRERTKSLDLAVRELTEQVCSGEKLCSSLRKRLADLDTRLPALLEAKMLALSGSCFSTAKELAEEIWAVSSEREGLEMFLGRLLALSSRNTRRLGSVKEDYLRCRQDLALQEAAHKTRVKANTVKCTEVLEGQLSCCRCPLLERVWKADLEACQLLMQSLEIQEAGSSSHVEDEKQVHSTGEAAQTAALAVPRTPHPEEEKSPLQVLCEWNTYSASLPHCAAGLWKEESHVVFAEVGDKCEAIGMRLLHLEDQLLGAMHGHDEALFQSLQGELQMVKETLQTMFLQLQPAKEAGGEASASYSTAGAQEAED
# T2: Disrupted-in-schizophrenia-1 (DISC1), endogenous, in solubilized rat striatal tissue (rat, UniProt Q810H6 1-846, limits assumed)
# T2 construct: Endogenous protein in a tissue extract
# T2 sequence (looked up): T1 sequence (Q810H6 1-846)
# B1: Dopamine D1 receptor (D1R), endogenous, in rat striatal tissue (receptor, UniProt P18901 1-446, looked up)
# chain: MAPNTSTMDEAGLPAERDFSFRILTACFLSLLILSTLLGNTLVCAAVIRFRHLRSKVTNFFVISLAVSDLLVAVLVMPWKAVAEIAGFWPLGPFCNIWVAFDIMCSTASILNLCVISVDRYWAISSPFQYERKMTPKAAFILISVAWTLSVLISFIPVQLSWHKAKPTWPLDGNFTSLEDTEDDNCDTRLSRTYAISSSLISFYIPVAIMIVTYTSIYRIAQKQIRRISALERAAVHAKNCQTTAGNGNPVECAQSESSFKMSFKRETKVLKTLSVIMGVFVCCWLPFFISNCMVPFCGSEETQPFCIDSITFDVFVWFGWANSSLNPIIYAFNADFQKAFSTLLGCYRLCPTTNNAIETVSINNNGAVVFSSHHEPRGSISKDCNLVYLIPHAVGSSEDLKKEEAGGIAKPLEKLSPALSVILDYDTDVSLEKIQPVTHSGQHST
# Columns and labels:
# D2R = D2R (Homo sapiens, UniProt P14416); settings: cited from earlier work
# Chain of D2R (P14416 whole entry): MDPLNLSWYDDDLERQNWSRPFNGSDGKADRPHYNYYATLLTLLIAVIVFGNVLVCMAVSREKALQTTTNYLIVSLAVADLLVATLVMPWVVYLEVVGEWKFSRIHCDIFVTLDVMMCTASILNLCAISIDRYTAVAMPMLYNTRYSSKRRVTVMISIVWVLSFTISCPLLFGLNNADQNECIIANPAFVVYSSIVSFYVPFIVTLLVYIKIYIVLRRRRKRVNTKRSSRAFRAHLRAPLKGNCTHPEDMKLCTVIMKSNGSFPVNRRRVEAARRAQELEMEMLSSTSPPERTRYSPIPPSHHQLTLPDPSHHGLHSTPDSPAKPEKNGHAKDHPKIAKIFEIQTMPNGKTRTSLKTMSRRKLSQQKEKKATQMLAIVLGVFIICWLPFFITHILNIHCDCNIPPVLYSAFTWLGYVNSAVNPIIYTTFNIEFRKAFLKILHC
# D2-DISC1 interaction [1] = assay: Co-immunoprecipitation of D2-DISC1 after ICV administration of peptide; type: in vivo, rat; settings: administered via ICV; data not shown
# Chain of D2-DISC1 interaction (P61169 whole entry, one chain of several): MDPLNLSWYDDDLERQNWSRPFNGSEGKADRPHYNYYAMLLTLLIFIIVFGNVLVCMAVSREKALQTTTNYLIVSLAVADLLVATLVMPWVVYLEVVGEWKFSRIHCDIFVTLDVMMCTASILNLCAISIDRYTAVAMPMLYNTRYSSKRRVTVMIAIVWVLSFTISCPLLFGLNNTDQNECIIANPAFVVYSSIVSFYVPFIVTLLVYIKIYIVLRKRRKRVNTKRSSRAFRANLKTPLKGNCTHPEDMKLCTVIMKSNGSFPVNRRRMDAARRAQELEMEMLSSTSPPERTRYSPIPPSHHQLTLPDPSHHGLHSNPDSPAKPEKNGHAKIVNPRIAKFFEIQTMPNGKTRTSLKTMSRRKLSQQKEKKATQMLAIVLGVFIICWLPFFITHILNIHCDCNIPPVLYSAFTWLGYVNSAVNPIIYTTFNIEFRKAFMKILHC
# Text: PPI of the acoustic startle reflex is a sensorimotor gating process known to be deficient in a number of neurologic and psychiatric conditions including, but not limited to schizophrenia, Huntington's disease, Tourette's syndrome, and obsessive compulsive disorder (OCD). PPI can be disrupted by the dopamine DI/D2R agonist apomorphine in rats (111). […] Accordingly, if D2-DISC1 interaction plays an important role in the D2R-mediated reduction of phosphorylation of GSK-3α/β, disruption of the D2R-DISC1 interaction should reverse D2R-associated behaviours such as PPI deficit. […] These effects could not be explained in terms of altered startle reactivity (data not shown). The ability of the TAT-D2pep (administered via ICV) to disrupt the D2-DISC1 interaction was confirmed in co-immunoprecipitation experiments (data not shown).
# D2-DISC1 interaction [2] = assay: Apomorphine-induced disruption of pre-pulse inhibition (PPI) of the acoustic startle reflex in rats; type: in vivo, rat; settings: for Effect on apomorphine-induced disruption of PPI / Effect on basal PPI (degree of PPI without apomorphine): rats; for Effect on apomorphine-induced disruption of PPI: apomorphine 0.3 mg/kg SC, peptide ICV (1 mM, 4 μl; 40 nmol), n=5 per group; for Effect on basal PPI (degree of PPI without apomorphine): peptide ICV
# Text: PPI of the acoustic startle reflex is a sensorimotor gating process known to be deficient in a number of neurologic and psychiatric conditions including, but not limited to schizophrenia, Huntington's disease, Tourette's syndrome, and obsessive compulsive disorder (OCD).
# DISC1 = target: T1, DISC1; assay: Affinity purification (pull-down) of DISC1 from solubilized striatal tissue by GST fusion proteins of D2R fragments; type: binding; settings: GST fusion protein
# Text: (A) Co-immunoprecipitation of DISC1 by D2 antibody in rat striatal tissue.
# This method uses GST fusion proteins encoding the fragments of a test protein to affinity purify other proteins that may form complexes with the test protein in tissue from a specific brain region. Since DISC1 is an intracellular protein, we made GST-fusion proteins encoding two intracellular regions of D2R: the carboxyl tail (CT) of D2R (D2CT: T428-C443) and the third intracellular loop ([…]) of D2R (D2IL3: K211-Q373). Many dopamine receptor interacting proteins have been identified that interact with either the CT or the IL3 region of dopamine receptors (94). […] GST fusion proteins encoding these two fragments were made and used in the affinity purification experiment. […] Thus, we concluded that D2IL3-1-1 (SEQ ID NO:1) comprises the site for D2-DISC1 interaction.
# GSK-3α/β phosphorylation = assay: Western blot of phosphorylated GSK-3α/β (Ser-21/9) in transfected HEK-293T cells; type: cell-based
# Method: (A) Western blot analysis of phosphorylated GSK-3α/β levels in extract prepared from transfected HEK293T cells in the presence or absence of DA. Alpha-tubulin was used as loading controls. (B) Densitometric analysis. Data are analyzed by t-test. (C) Cyclic AMP analysis in transfected HEK293T cells in the presence or absence of Foskolin and Quinpirole. Data are analyzed by one-way ANOVA. Data are means±SEM. Numbers of samples per group (n) are indicated. CTRL: Control; DA: Dopamine.
# Alpha-tubulin was used as loading controls. CTRL: Control; DA: Dopamine.
# Currently, all studies related to D2R-mediated Akt/GSK-3 signaling were carried out in brain tissue, where the expression of D2R and DISC1 was confirmed (11,89,99). At least to our knowledge, there are no studies of D2R-mediated Akt/GSK-3 signaling in HEK-293T cells. Furthermore, there is no evidence indicating the existence of endogenous DISC1 in HEK-293T cells. […] The intensity of phosphor-GSK-3α Ser-21 and […] binding was quantified by densitometry (software: AIS Imaging Research Inc) (FIG. 1B). […] acted as a loading control in this experiment. […]
# [3] = 100 Russian patients with schizophrenia; cited from earlier work
# DISC1NT = assay: In vitro binding assay with [35S]-DISC1NT probe; settings: glutathione beads with GST-fusion protein, autoradiography
# Chain of DISC1NT (Q9NRI5 1-75 limits assumed): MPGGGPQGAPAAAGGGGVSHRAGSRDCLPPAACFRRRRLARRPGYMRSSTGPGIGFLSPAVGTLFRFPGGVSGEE
# Method: (§1) To construct GST-fusion proteins encoding truncated D2113, cDNA fragments were amplified by PCR with specific primers. All 5′ and 3′ oligonucleotides incorporated BamH1 site (GGATCC) and Xho1 sites (CTCGAG), respectively, to facilitate subcloning into vector pGEX-4T3 (for GST-fusion protein construction). GST-fusion proteins were prepared from bacterial lysates as described by the manufacturer (Amersham). To confirm appropriate splice fusion and the absence of spurious PCR generated nucleotide errors, all constructs were resequenced. For in vitro binding assays, the probes were made with DISC1-NT or DISC1-CT subcloned into mammalian expression vector pCDNA3 using TNT® T7 Quick Coupled Transcription/Translation System (Promega, Madison, Wis.) and [35S] methionine (PerkinElmer, Waltham, Mass.). Glutathione beads carrying 20 μg GST-fusion proteins of D2IL3 or GST alone were incubated at room temperature for 1 hour with [35S] methionine-labeled […] probe, respectively. The beads were then washed six times with PBS containing 0.1-0.5% (V/V) Triton X-100 and eluted with 10 mM glutathione elution buffer. Eluates were separated by SDS-PAGE and visualized by autoradiography using BioMax (Kodak) film.
# DISC1CT = assay: In vitro binding assay with [35S]-DISC1CT probe; settings: glutathione beads with GST-fusion protein, autoradiography
# Method: as §1
# [4] = target: T2, Disrupted-in-schizophrenia-1 (DISC1), …; assay: co-immunoprecipitation from rat striatal tissue with D1R antibody (data not shown)
molecule,measurement,setting,value
Cc1nc2n(c(=O)c1CCN1CCC(c3noc4cc(F)ccc34)CC1)CCCC2 [risperidone],Antagonism of β-arrestin 2 recruitment to D2R,D2R,potently antagonize
O=C1Cc2cc(CCN3CCN(c4nsc5ccccc45)CC3)c(Cl)cc2N1 [ziprasidone],Antagonism of β-arrestin 2 recruitment to D2R,D2R; induced by activation of D2R,potently antagonize
TAT-D2pep: TAT-D2 pep [K211-T225]: YGRKKRRQRRRKIYIVLRRRRKRVNT (SEQ ID NO:2) (TAT-[K211-T225]D2R fusion protein),Ability to disrupt the D2-DISC1 interaction (co-immunoprecipitation),D2-DISC1 interaction [1],confirmed
same,Effect on apomorphine-induced disruption of PPI,D2-DISC1 interaction [2],completely reversed the effects of apomorphine; also recorded: significantly reversed the disruption of PPI
same,Effect on basal PPI (degree of PPI without apomorphine),D2-DISC1 interaction [2],without altering the degree of PPI
"GST-D2CT: GST-fusion protein of the carboxyl tail of D2R (D2CT: T428-C443) (TFNIEFRKAFLKILHC; also: GST fusion; UniProt P14416 428-443, looked up, fragment)",Pull-down (precipitation) of DISC1,DISC1,not
NCCc1ccc(O)c(O)c1 [dopamine],Phosphorylation of GSK3α/β,"GSK-3α/β phosphorylation; HEK-293T cells co-expressing D2R and DISC1, 10 μM dopamine, 30 min",significantly decreased
same,Phosphorylation of GSK3α/β,"GSK-3α/β phosphorylation; HEK-293T cells expressing D2R with pcDNA3, dopamine",failed to alter
CN1CCc2cccc3c2[C@H]1Cc1ccc(O)c(O)c1-3 [apomorphine],Effect on PPI in comparison with saline/vehicle,"D2-DISC1 interaction [2]; rat, in vivo",reduced levels of PPI at all 3 prepulse intensities; also recorded: significantly disrupted PPI
TAT-D2pep-sc: scrambled peptide YGRKKRRQRRRVLRKTRIRRYKIRNV (SEQ ID NO:3) (TAT-D2 scrambled fusion protein),Effect on apomorphine-induced disruption of PPI,D2-DISC1 interaction [2],did not affect the response to apomorphine
same,Effect on apomorphine-induced disruption of PPI,D2-DISC1 interaction [2]; listed as TAT-D2pep-scramb,no effect
same,Effect on basal PPI (degree of PPI without apomorphine),D2-DISC1 interaction [2],did not affect
"N[C@@]1(C(=O)O)CS(=O)(=O)[C@H]2[C@H](C(=O)O)[C@H]21 [LY404,039]",Clinical effectiveness in schizophrenia,[3],significantly effective
OCCOCCN1CCN(C2=Nc3ccccc3Sc3ccccc32)CC1 [quetiapine],Antagonism of β-arrestin 2 recruitment to D2R,D2R; induced by activation of D2R,potently antagonize
"GST-D2IL3-1-1: GST fusion of D2IL3-1-1: K211-T225, KIYIVLRRRRKRVNT (SEQ ID NO:1) (also: GST fusion; UniProt P14416 211-225, looked up, fragment)",Pull-down (precipitation) of DISC1,DISC1,Affinity pull-down of the DISC1; also recorded: recognizes and precipitates DISC1
same,Binding of [35S]-DISC1NT probe,DISC1NT,bound
same,Binding of [35S]-DISC1CT probe,DISC1CT,not
"GST-D2IL3-1-2: GST fusion of D2IL3-1-2: K226-L240 (KRSSRAFRAHLRAPL; also: GST fusion; UniProt P14416 226-240, looked up, fragment)",Pull-down (precipitation) of DISC1,DISC1,failed to
"GST-D2IL3-1: GST fusion protein of D2IL3-1: K211-V270 (KIYIVLRRRRKRVNTKRSSRAFRAHLRAPLKGNCTHPEDMKLCTVIMKSNGSFPVNRRRV; cysteine pairing not given here; also: GST fusion; UniProt P14416 211-270, looked up, fragment)",Pull-down (precipitation) of DISC1,DISC1,Affinity pull-down of the DISC1; also recorded: recognizes and precipitates DISC1
B1,binding result,[4],no binding

# From patent US20120093822A1, “DOPAMINE D2 RECEPTOR-DISC1 INTERACTION, COMPOSITIONS AND METHODS FOR MODULATING SAME” (Centre Forr Addiction And Mental Health, priority 2009, published 2012)
